According to US7741283B2, “Compositions and methods for inhibiting cell proliferation” (St. Louis University, priority 2003, dated 2010):

How the values were obtained:
[1] = system: IRS-2; experiment: 32P metabolic labeling and immunoprecipitation of IRS-2, DR26 cells; assay type: cell-based, mink; settings: IGFBP-3 1 μg/ml
[2] = system: R1B cells; settings: IGFBP-3 0.5 μg/ml; cited from earlier work
[3] = system: 32D/IRS-1 cells; experiment: [methyl-3H] thymidine incorporation, 32D/IRS-1 cells; assay type: cell-based, murine; settings: 32D cells expressing IRS-1
[4] = system: 32D/IR/IRS-2 cells; experiment: [methyl-3H] thymidine incorporation, 32D/IR/IRS-2 cells; assay type: cell-based, murine; settings: 32D cells expressing IRS-2 and insulin receptor
[5] = system: Mv1Lu cells; experiment: Cell growth (cell number), Mv1Lu cells; assay type: cell-based, mink; settings: IGFBP-3 0.5 μg/ml, 4-day
Procedure: FIG. 6 depicts the effects of IGFBP-3 and TGF-β1 on DNA synthesis (A), cell growth (B) and PAI-1 expression (C) in Mv1Lu and PEA-C11 cells. (A,B) Cells were incubated with various concentrations of IGFBP-3 (a) or TGF-β1 (b) as indicated. DNA synthesis and cell growth were determined by measuring the [methyl-^3H] thymidine incorporation into cellular DNA after 18 hr incubation (A) and by counting cell number after a 4-day incubation (B), respectively. The [methyl-^3H] thymidine incorporation in cells treated without IGFBP-3 and TGF-β1 (29,170±1,657 and 59,947±7,692 cpm/well for Mv1Lu and PEA-C11 cells, respectively) were taken as 0% inhibition. […] Each data point is the mean±S.D. of quadruplicate determinations. […] Data are representative of eight similar experiments. (C) Cells were incubated with various concentrations of TGF-β1 as indicated. After 2 hr at 37° C., the PAI-1 expression was determined by Northern blot analysis. The expression of glyceraldehyde-3-phosphate dehydrogenase (G3PDH) was used as control. The relative levels of the transcripts were quantified by a Phospholmager. Data are representative of four similar experiments.
Cells were plated at a density of 1-2×10^4 cells/dish in DMEM containing 1% fetal calf serum. The cell number was counted every day or after a 3-day incubation using a hematocytometer. The assays were performed in quadruplicate.

[6] = system: IRS-2; experiment: Determination of tyrosine phosphorylation of IRS-2, Mv1Lu cells; assay type: cell-based, mink
Procedure: FIG. 15 depicts tyrosine phosphorylation of IRS-2 in Mv1Lu cells treated with IGFBP-3 and insulin. Cells were stimulated with or without insulin (10 nM) for 10 min and then treated with or without IGFBP-3 (1 μg/ml) for 1 hr (A). On the other hand, cells pretreated with or without IGFBP-3 (1 μg/ml) for 2 hr and then stimulated with insulin (10 nM) for 10 min (B, lane 1 and lane 2, respectively). In a parallel experiment, cells were treated with insulin (10 nM) in the presence and absence of IGFBP-3 (1 μg/ml) for 2 hr (B, lane 3 and lane 4, respectively). […] The arrow indicates the location of tyrosine-phosphorylated IRS-2.
Mv1Lu cells were plated on 30-mm dishes at a cell density of 4×10^4/cm^2 in DMEM containing 10% fetal calf serum. The cells in serum-free DMEM were pre-treated with IGFBP-3 (1 μg/ml) for 1 or 2 hr and then treated with insulin (10 nM) for 10 min or treated with insulin (10 nM) for 10 min and then treated with IGFBP-3 (1 μg/ml) for a further 2 hr, or treated simultaneously with insulin (10 nM) and IGFBP-3 (1 μg/ml) for 2 hr. The experiments were carried out at 37° C. The cell lysates were subjected to immunoprecipitation using anti-IRS-2 IgG followed by 7.5% SDS-PAGE and Western blot analysis using anti-phosphotryosine IgG and the ECL system (Santa Cruz).

[7] = system: IRS-2; experiment: 32P metabolic labeling and immunoprecipitation of IRS-2, Mv1Lu cells; assay type: cell-based, mink
[8] = system: 32D cells expressing vector only; experiment: [methyl-3H] thymidine incorporation, 32D cells transfected with vector only; assay type: cell-based, murine
[9] = biological target: acidic pH binding sites (Neogale vison, UniProt A0A8C7BSJ2); experiment: Specific binding of 125I-ligands to Mv1Lu cells at acidic pH; design: species or system mink; settings: Mv1Lu cells; EGTA/BAPTA- or GST-RAP-sensitive binding, 0° C.
acidic pH binding sites, sequence (A0A8C7BSJ2 entry or part of it): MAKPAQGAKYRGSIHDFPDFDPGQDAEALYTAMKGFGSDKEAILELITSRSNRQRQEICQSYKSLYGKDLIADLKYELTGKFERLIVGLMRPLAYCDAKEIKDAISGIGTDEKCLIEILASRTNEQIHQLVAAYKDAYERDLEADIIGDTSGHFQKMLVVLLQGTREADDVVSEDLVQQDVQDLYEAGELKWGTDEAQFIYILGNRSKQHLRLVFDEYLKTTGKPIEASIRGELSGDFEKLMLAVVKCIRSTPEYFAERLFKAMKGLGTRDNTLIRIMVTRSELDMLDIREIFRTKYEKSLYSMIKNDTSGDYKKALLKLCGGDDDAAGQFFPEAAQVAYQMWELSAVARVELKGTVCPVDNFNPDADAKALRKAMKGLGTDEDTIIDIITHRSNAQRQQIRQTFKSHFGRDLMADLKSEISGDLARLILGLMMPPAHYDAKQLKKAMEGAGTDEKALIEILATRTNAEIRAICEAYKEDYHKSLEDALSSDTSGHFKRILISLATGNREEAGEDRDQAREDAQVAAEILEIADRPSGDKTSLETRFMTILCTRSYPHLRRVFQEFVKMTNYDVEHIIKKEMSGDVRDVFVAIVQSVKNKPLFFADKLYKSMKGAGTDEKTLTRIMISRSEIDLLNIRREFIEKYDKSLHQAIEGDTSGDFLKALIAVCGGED

In the case of “IGFBP-3: human insulin-like growth factor binding protein-3 expressed in E. Coli”, the “Electrophoretic mobility change of IRS-2 compared with Mv1Lu and R1B cells” value [1] is given as “induced a greater increase in electrophoretic mobility”, the “Inhibition of DNA synthesis” value [2] is given as 30-50% and the “Growth inhibitory response (DNA synthesis)” value [3] is given as “potent growth inhibitory response”. For the same substance, the “Growth inhibitory response (DNA synthesis)” value [4] was “potent growth inhibitory response”, the “Inhibition of cell growth” value [5] was about 70% and the “Effect on insulin-stimulated tyrosine phosphorylation of IRS-2” value (from here on “Effect”) ([6]; IGFBP-3 pretreatment 2 hr, then insulin 10 nM 10 min) was “diminished”. The “Effect” value ([6]; insulin 10 nM 10 min, then IGFBP-3 1 μg/ml 1 hr) was “failed to affect”, the “Effect” value ([6]; simultaneous insulin 10 nM and IGFBP-3 1 μg/ml, 2 hr) was “enhancement” and the “Incubation time after which mobility change of 32P-labeled IRS-2 occurred” value ([7]; IGFBP-3 1 μg/ml, Mv1Lu) was 0.5 h. For the same substance, the “Half-optimal concentration (ED50) to induce electrophoretic mobility change of 32P-labeled IRS-2” value ([7]; Mv1Lu cells) was 0.1 to 0.3 µg/mL, the “Induction of specific dephosphorylation (mobility change) of 32P-labeled IRS-2” value ([7]; Mv1Lu, IGFBPs 1 μg/ml, TGF-β1 20 pM) was “induces specific dephosphorylation” and the “Inhibition of DNA synthesis” value [8] was “minimally or not at all”. For the same substance, the “pH of optimal/maximal binding” value [9] was 5.
